According to patent publication US20240067632A1, “WEE1 Degrading Compounds and Uses Thereof” (Bristol-Myers Squibb Company, priority 2022, published 2024):

Legend:
WEE1 = target: T1, WEE1 (Homo sapiens, UniProt P30291+Q96SW2); test: WEE1-ePL degradation assay (LentiX-WEE1-ePL-GSPT1-ND cells, InCELL Hunter luminescence, 4 h); type: cell-based; conditions: 293T-LentiX WEE1-ePL cells; for 293T-LentiX WEE1-ePL Degradation 4 hr (Ymin): lower limit of the fit (0 = luciferase inhibitor, Ymax = DMSO control); for DC50: read-out: 293T-LentiX WEE1-ePL Degradation 4 hr (EC50)
T1 construct: C-terminal ePL-tagged (DiscoverX, Fremont, CA) full-length WEE1 expression construct; expressed in transfected cells; host or cells: LentiX-HEK293T (Invitrogen), lentiviral transduction; co-expressing GSPT1-GN (G576N, lacking the first 158 amino acids)
In short: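 First, compounds were pre-plated as 10-point, 3-fold dilutions (top 1 uM or 10 uM) with DMSO control; next, WEE1-ePL-expressing HEK293T cells were added and held 4 h at 37 °C; finally, InCELL Hunter reagent was applied for 30 min before luminescence reading. A 4PL fit gave EC50 and Ymin.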

MKN45 cells = test: MKN45 cell proliferation assay (Cell-Titer-Glo, 120 h); type: cell-based; conditions: for EC50: Homo sapiens, MKN-45, 120 h, Cell-Titer-Glo, growth inhibition, read-out: MKN45 Cell Prolif. 120 hr (EC50); for MKN45 Cell Prolif. 120 hr (Ymin-Obs): minimal percent of DMSO control observed in the concentrations tested
In short: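 Growth inhibition was read as blank-corrected Cell-Titer-Glo luminescence expressed as percent DMSO control after 120 h at 37 C, 400 cells/well. Compounds tested in triplicate as 10-point half-log series from 1 or 10 uM, 0.1% DMSO; four-parameter fit gave EC50, and lowest observed percent control was reported as Ymin-obs.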

293T-LentiX WEE1-ePL Degradation 4 hr (Ymin) (WEE1)	DC50 (WEE1)	EC50 (MKN45 cells)	Structure (SMILES)	MKN45 Cell Prolif. 120 hr (Ymin-Obs) (MKN45 cells)
47	3.66 nM	10.1 nM	O=C1CCC(N2Cc3cc(O[C@H]4CCN(Cc5ccc6nc(N7CCC[C@@]78CCOC8)ccc6c5)C4)ccc3C2=O)C(=O)N1 (stereo partly drawn) [3-(5-{[(3S)-1-({2-[(5S)-7-oxa-1-azaspiro[4.4]nonan-1-yl]quinolin-6-yl}methyl)pyrrolidin-3-yl]oxy}-1-oxo-2,3-dihydro-1H-isoindol-2-yl)piperidine-2,6-dione]	26.44
37	10.6 nM	4.27 nM	O=C1CCC(N2Cc3cc(O[C@H]4CCN(Cc5ccc6nc(NC7CCOCC7)ccc6c5)C4)ccc3C2=O)C(=O)N1 (stereo partly drawn) [3-(5-{[(3S)-1-({2-[(oxan-4-yl)amino]quinolin-6-yl}methyl)pyrrolidin-3-yl]oxy}-1-oxo-2,3-dihydro-1H-isoindol-2-yl)piperidine-2,6-dione]	7.78
33	4.73 nM	2.19 nM	O=C1CCC(N2Cc3cc(O[C@H]4CCN(Cc5ccc6nc(COC7CCOCC7)ccc6c5)C4)ccc3C2=O)C(=O)N1 (stereo partly drawn) [3-(5-{[(3S)-1-({2-[(oxan-4-yloxy)methyl]quinolin-6-yl}methyl)pyrrolidin-3-yl]oxy}-1-oxo-2,3-dihydro-1H-isoindol-2-yl)piperidine-2,6-dione]	7.295
23.84	122 nM	5.37 nM	O=C1CCC(N2Cc3cc(O[C@H]4CCN(Cc5ccc6nc(COC7COC7)ccc6c5)C4)ccc3C2=O)C(=O)N1 (stereo partly drawn) [3-(5-{[(3S)-1-({2-[(oxetan-3-yloxy)methyl]quinolin-6-yl}methyl)pyrrolidin-3-yl]oxy}-1-oxo-2,3-dihydro-1H-isoindol-2-yl)piperidine-2,6-dione]	9.252
32	1.82 nM	3.5 nM	CN(c1ccc2cc(CN3CC[C@H](Oc4ccc5c(c4)CN(C4CCC(=O)NC4=O)C5=O)C3)ccc2n1)C1CCOCC1 (stereo partly drawn) [3-(5-{[(3S)-1-({2-[methyl(oxan-4-yl)amino]quinolin-6-yl}methyl)pyrrolidin-3-yl]oxy}1-oxo-2,3-dihydro-1H-isoindol-2-yl)piperidine-2,6-dione]	8.45
42	60.1 nM	2040 nM	O=C1CCC(N2Cc3cc(O[C@H]4CCN(Cc5cnc6c(c5)CCO6)C4)ccc3C2=O)C(=O)N1 (stereo partly drawn) [3-(5-{[(3S)-1-({2H,3H-furo[2,3-b]pyridin-5-yl}methyl)pyrrolidin-3-yl]oxy}-1-oxo-2,3-dihydro-1H-isoindol-2-yl)piperidine-2,6-dione]	40.58
34	20.8 nM	751 nM	O=C1CCC(N2Cc3cc(O[C@H]4CCN(Cc5cc6c(cn5)OCC6)C4)ccc3C2=O)C(=O)N1 (stereo partly drawn) [3-(5-{[(3S)-1-({2H,3H-furo[2,3-c]pyridin-5-yl}methyl)pyrrolidin-3-yl]oxy}-1-oxo-2,3-dihydro-1H-isoindol-2-yl)piperidine-2,6-dione]	25.455
28	2 nM	0.738 nM	O=C1CCC(N2Cc3cc(O[C@H]4CCN(Cc5cc(-c6cccc(C7=CCOCC7)c6)ccn5)C4)ccc3C2=O)C(=O)N1 (stereo partly drawn) [3-(5-{[(3S)-1-({4-[3-(3,6-dihydro-2H-pyran-4-yl)phenyl]pyridin-2-yl}methyl)pyrrolidin-3-yl]oxy}-1-oxo-2,3-dihydro-1H-isoindol-2-yl)piperidine-2,6-dione]	7.53
28	2.32 nM	7.33 nM	O=C1CCC(N2Cc3cc(O[C@H]4CCN(Cc5cc(-c6cccc(N7CCOCC7)c6)ccn5)C4)ccc3C2=O)C(=O)N1 (stereo partly drawn) [3-(5-{[(3S)-1-({4-[3-(morpholin-4-yl)phenyl]pyridin-2-yl}methyl)pyrrolidin-3-yl]oxy}-1-oxo-2,3-dihydro-1H-isoindol-2-yl)piperidine-2,6-dione]	4.54
31	1.33 nM	0.192 nM	O=C1CCC(N2Cc3cc(O[C@H]4CCN(Cc5cc(-c6ccc(C7CCOCC7)cc6)ccn5)C4)ccc3C2=O)C(=O)N1 (stereo partly drawn) [3-(5-{[(3S)-1-({4-[4-(oxan-4-yl)phenyl]pyridin-2-yl}methyl)pyrrolidin-3-yl]oxy}-1-oxo-2,3-dihydro-1H-isoindol-2-yl)piperidine-2,6-dione]	6.39
42	9.71 nM	44.9 nM	Cc1cc(CN2CC[C@H](Oc3ccc4c(c3)CN(C3CCC(=O)NC3=O)C4=O)C2)ncc1OCC1CCOCC1 (stereo partly drawn) [3-(5-{[(3S)-1-({4-methyl-5-[(oxan-4-yl)methoxy]pyridin-2-yl}methyl)pyrrolidin-3-yl]oxy}-1-oxo-2,3-dihydro-1H-isoindol-2-yl)piperidine-2,6-dione]	16.9
33	96.7 nM	56.4 nM	CNC1(c2ccc3cc(CN4CC[C@H](Oc5ccc6c(c5)CN(C5CCC(=O)NC5=O)C6=O)C4)ncc3c2)COC1 (stereo partly drawn) [3-(5-{[(3S)-1-({7-[3-(methylamino)oxetan-3-yl]isoquinolin-3-yl}methyl)pyrrolidin-3-yl]oxy}-1-oxo-2,3-dihydro-1H-isoindol-2-yl)piperidine-2,6-dione]	7.77
33.52	150 nM	933 nM	O=C1CCC(N2Cc3cc(O[C@H]4CCN(Cc5cnc6ccccn56)C4)ccc3C2=O)C(=O)N1 (stereo partly drawn) [3-(5-{[(3S)-1-({imidazo[1,2-a]pyridin-3-yl}methyl)pyrrolidin-3-yl]oxy}-1-oxo-2,3-dihydro-1H-isoindol-2-yl)piperidine-2,6-dione]	21.75
37	27.9 nM	2520 nM	O=C1CCC(N2Cc3cc(O[C@H]4CCN(Cc5ccc6ncccc6n5)C4)ccc3C2=O)C(=O)N1 (stereo partly drawn) [3-(5-{[(3S)-1-[(1,5-naphthyridin-2-yl)methyl]pyrrolidin-3-yl]oxy}-1-oxo-2,3-dihydro-1H-isoindol-2-yl)piperidine-2,6-dione]	54.03
66	75.4 nM	561 nM	O=C1CCC(N2Cc3cc(O[C@H]4CCN(Cc5cnc6cccnc6c5)C4)ccc3C2=O)C(=O)N1 (stereo partly drawn) [3-(5-{[(3S)-1-[(1,5-naphthyridin-3-yl)methyl]pyrrolidin-3-yl]oxy}-1-oxo-2,3-dihydro-1H-isoindol-2-yl)piperidine-2,6-dione]	73.34
67.53	122 nM	960 nM	O=C1CCC(N2Cc3cc(O[C@H]4CCN(Cc5cc6ncccc6cn5)C4)ccc3C2=O)C(=O)N1 (stereo partly drawn) [3-(5-{[(3S)-1-[(1,6-naphthyridin-7-yl)methyl]pyrrolidin-3-yl]oxy}-1-oxo-2,3-dihydro-1H-isoindol-2-yl)piperidine-2,6-dione]	84.48
26.94	20.8 nM	92.3 nM	O=C1CCC(N2Cc3cc(O[C@H]4CCN(Cc5cnc6cnccc6c5)C4)ccc3C2=O)C(=O)N1 (stereo partly drawn) [3-(5-{[(3S)-1-[(1,7-naphthyridin-3-yl)methyl]pyrrolidin-3-yl]oxy}-1-oxo-2,3-dihydro-1H-isoindol-2-yl)piperidine-2,6-dione]	9.14
26.505	14.7 nM	102 nM	O=C1CCC(N2Cc3cc(O[C@H]4CCN(Cc5cc6cccnc6cn5)C4)ccc3C2=O)C(=O)N1 (stereo partly drawn) [3-(5-{[(3S)-1-[(1,7-naphthyridin-6-yl)methyl]pyrrolidin-3-yl]oxy}-1-oxo-2,3-dihydro-1H-isoindol-2-yl)piperidine-2,6-dione]	9.59
75	292 nM	1020 nM	O=C1CCC(N2Cc3cc(O[C@H]4CCN(Cc5ccc6cccnc6n5)C4)ccc3C2=O)C(=O)N1 (stereo partly drawn) [3-(5-{[(3S)-1-[(1,8-naphthyridin-2-yl)methyl]pyrrolidin-3-yl]oxy}-1-oxo-2,3-dihydro-1H-isoindol-2-yl)piperidine-2,6-dione]	65.94
27.365	70.6 nM	547 nM	O=C1CCC(N2Cc3cc(O[C@H]4CCN(Cc5cnc6ncccc6c5)C4)ccc3C2=O)C(=O)N1 (stereo partly drawn) [3-(5-{[(3S)-1-[(1,8-naphthyridin-3-yl)methyl]pyrrolidin-3-yl]oxy}-1-oxo-2,3-dihydro-1H-isoindol-2-yl)piperidine-2,6-dione]	12.27
40	19.6 nM	313 nM	CN1CCCc2c(CN3CC[C@H](Oc4ccc5c(c4)CN(C4CCC(=O)NC4=O)C5=O)C3)cncc21 (stereo partly drawn) [3-(5-{[(3S)-1-[(1-methyl-1,2,3,4-tetrahydro-1,7-naphthyridin-5-yl)methyl]pyrrolidin-3-yl]oxy}-1-oxo-2,3-dihydro-1H-isoindol-2-yl)piperidine-2,6-dione]	43.26
